# Test results from article PMC10023787, “Trio-pharmacophore DNA-encoded chemical library for simultaneous selection of fragments and linkers” (Nature Communications, 2023).
# Like-named read-outs stand apart in the source and are kept apart here.
# Columns and labels:
# MMP-9 = target: T1, MMP-9 (Homo sapiens, UniProt P14780); test: MMP-9 inhibition assay (fluorogenic peptide substrate); format: biochemical; parameters: remaining enzyme activity (% of control): scale not given here
# T1 construct: purchased Sino Biological 10327-HNAH
# T1 sequence (P14780 107-707 limits assumed): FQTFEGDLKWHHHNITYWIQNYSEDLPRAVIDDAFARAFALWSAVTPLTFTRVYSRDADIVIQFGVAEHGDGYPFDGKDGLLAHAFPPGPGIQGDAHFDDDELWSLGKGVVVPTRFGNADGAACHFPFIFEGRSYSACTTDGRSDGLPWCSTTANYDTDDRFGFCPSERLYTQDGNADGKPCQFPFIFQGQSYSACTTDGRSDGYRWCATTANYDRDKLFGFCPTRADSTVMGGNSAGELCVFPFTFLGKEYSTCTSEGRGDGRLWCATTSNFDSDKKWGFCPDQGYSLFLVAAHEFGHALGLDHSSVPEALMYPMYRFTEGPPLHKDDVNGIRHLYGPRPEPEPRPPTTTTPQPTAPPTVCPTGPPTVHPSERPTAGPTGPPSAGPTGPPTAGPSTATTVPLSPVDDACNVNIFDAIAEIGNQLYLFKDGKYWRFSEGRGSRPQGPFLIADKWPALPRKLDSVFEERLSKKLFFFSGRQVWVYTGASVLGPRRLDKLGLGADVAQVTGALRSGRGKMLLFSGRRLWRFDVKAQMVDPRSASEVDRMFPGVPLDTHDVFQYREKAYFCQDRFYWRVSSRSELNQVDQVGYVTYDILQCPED
# Procedure, shortened: (§1)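 Hydrolysis of DNP-Pro-Leu-Gly-Met-Trp-Ser-Arg (25 μM final) was tracked kinetically at em 360 nm over 30 min. Enzymes, APMA-activated and at 10 nM (MMP-9) or 6.5 nM (MMP-2) final, sat 30 min at RT with inhibitor in pH 7.5 Tris buffer with CaCl2 and Brij 35 first. Logistic fitting of Vmax against concentration gave IC50, in triplicate.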
# MMP-2 = target: T2, MMP-2 (Homo sapiens, UniProt P08253); test: MMP-2 inhibition assay (fluorogenic peptide substrate); format: biochemical
# T2 construct: purchased Sino Biological 10082-HNAH
# T2 sequence (P08253 110-660): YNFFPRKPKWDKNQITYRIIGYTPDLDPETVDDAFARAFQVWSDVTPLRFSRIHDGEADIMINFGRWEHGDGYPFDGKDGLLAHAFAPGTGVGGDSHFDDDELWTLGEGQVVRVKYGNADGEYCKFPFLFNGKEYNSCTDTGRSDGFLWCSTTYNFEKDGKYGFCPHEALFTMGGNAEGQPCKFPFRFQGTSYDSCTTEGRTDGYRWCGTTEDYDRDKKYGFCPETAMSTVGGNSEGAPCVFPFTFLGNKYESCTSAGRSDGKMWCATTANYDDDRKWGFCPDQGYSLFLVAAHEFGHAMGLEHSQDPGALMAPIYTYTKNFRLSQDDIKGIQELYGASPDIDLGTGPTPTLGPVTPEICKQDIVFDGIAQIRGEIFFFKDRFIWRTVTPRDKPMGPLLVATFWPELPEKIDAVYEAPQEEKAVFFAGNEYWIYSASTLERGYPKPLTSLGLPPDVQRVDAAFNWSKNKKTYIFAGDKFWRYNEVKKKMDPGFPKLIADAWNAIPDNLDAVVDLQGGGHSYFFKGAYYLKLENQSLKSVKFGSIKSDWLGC
# Procedure, shortened: as §1
# [1] = mean ± SE; n.d: not detected; Fig. 5e prints no unit, µM; read-out: IC50
# [2] = MMP-2; concentration 1219.00 µM
# [3] = mean ± SE; n.d: not detected; Fig. 5d unit inferred, µM; read-out: IC50
# [4] = Figure 5d; fragment combination joined by linker; n.d: not detected; read-out: MMP9 IC50
# [5] = Figure 5d; fragment combination joined by linker; n.d: not detected; read-out: MMP2 IC50
compound,measurement,setting,value
Cc1cc(=O)[nH]c(-n2nc(C)c(CCC(=O)NCCOCCOCCNC(=O)CCC(=O)NCc3c[nH]nn3)c2C)n1 [693+787 Linker 10],remaining enzyme activity (% of control),MMP-9; MMP-9; concentration 0.08 µM,96.44
same,remaining enzyme activity (% of control),MMP-9; MMP-9; concentration 0.39 µM,100.55
same,remaining enzyme activity (% of control),MMP-9; MMP-9; concentration 1.95 µM,96.19
same,remaining enzyme activity (% of control),MMP-9; MMP-9; concentration 9.75 µM,93.95
same,remaining enzyme activity (% of control),MMP-9; MMP-9; concentration 48.76 µM,88.14
same,remaining enzyme activity (% of control),MMP-9; MMP-9; concentration 243.80 µM,47.49
same,remaining enzyme activity (% of control),MMP-9; MMP-9; concentration 1219.00 µM,12.51
same,IC50,MMP-9; [1],230 ± 51.3 µM
same,remaining activity (%),MMP-2; MMP-2; concentration 0.0156 µM,92.29
same,remaining activity (%),MMP-2; MMP-2; concentration 0.08 µM,75.74
same,remaining activity (%),MMP-2; MMP-2; concentration 0.39 µM,87.35
same,remaining activity (%),MMP-2; MMP-2; concentration 1.95 µM,94.03
same,remaining activity (%),MMP-2; MMP-2; concentration 9.75 µM,78.88
same,remaining activity (%),MMP-2; MMP-2; concentration 48.76 µM,75.04
same,remaining activity (%),MMP-2; MMP-2; concentration 243.80 µM,39.80
same,remaining activity (%),MMP-2; [2],7.43
same,IC50,MMP-2; [3],171 ± 12.6 µM
Cc1cc(=O)[nH]c(-n2nc(C)c(CCC(=O)NCCNC(=O)CC(=O)/C=C/CCCCNC(=O)c3cnc4c(c3)nc(O)n4C)c2C)n1 [693_826 12],IC50,MMP-9; [4],58.9 µM
same,IC50,MMP-2; [5],210 µM
Cc1cc(=O)[nH]c(-n2nc(C)c(CCC(=O)NCCSCC(=O)NCCNC(=O)c3cnc4c(c3)nc(O)n4C)c2C)n1 [693+826 Linker 24],remaining enzyme activity (% of control),MMP-9; MMP-9; concentration 0.12 µM,99.26
same,remaining enzyme activity (% of control),MMP-9; MMP-9; concentration 0.49 µM,96.54
same,remaining enzyme activity (% of control),MMP-9; MMP-9; concentration 1.95 µM,94.32
same,remaining enzyme activity (% of control),MMP-9; MMP-9; concentration 7.81 µM,95.86
same,remaining enzyme activity (% of control),MMP-9; MMP-9; concentration 31.25 µM,95.02
same,remaining enzyme activity (% of control),MMP-9; MMP-9; concentration 125.00 µM,70.00
same,remaining enzyme activity (% of control),MMP-9; MMP-9; concentration 500.00 µM,41.34
same,IC50,MMP-9; [1],358 ± 114 µM
same,remaining activity (%),MMP-2; MMP-2; concentration 0.12 µM,98.54
same,remaining activity (%),MMP-2; MMP-2; concentration 0.49 µM,94.49
same,remaining activity (%),MMP-2; MMP-2; concentration 1.95 µM,93.80
same,remaining activity (%),MMP-2; MMP-2; concentration 7.81 µM,81.11
same,remaining activity (%),MMP-2; MMP-2; concentration 31.25 µM,77.57
same,remaining activity (%),MMP-2; MMP-2; concentration 125.00 µM,58.31
same,remaining activity (%),MMP-2; MMP-2; concentration 500.00 µM,52.30
same,IC50,MMP-2; [3],417 ± 50.3 µM
O=C(CNC(=O)NC12CC3CC(CC(C3)C1)C2)NCCOCCOCCNC(=O)c1cncc(O)c1 [66_828 10],IC50,MMP-9; [4],521 µM
same,IC50,MMP-2; [5],293 µM
O=C(C=CCCCCC(=O)NCc1c[nH]nn1)CC(=O)NCC12CC3CC(CC(C3)C1)C2 [66_787 12],IC50,MMP-9; [4],115 µM
same,IC50,MMP-2; [5],339 µM
O=C(CCC(=O)NCc1c[nH]nn1)NCCCCCCCCNC(=O)Cn1cnc2c(oc3ccccc32)c1=O [182+787 Linker 4],remaining enzyme activity (% of control),"MMP-9; MMP-9, concentration 0.08 µM",91.89
same,remaining enzyme activity (% of control),"MMP-9; MMP-9, concentration 0.39 µM",89.82
same,remaining enzyme activity (% of control),"MMP-9; MMP-9, concentration 1.95 µM",91.34
same,remaining enzyme activity (% of control),"MMP-9; MMP-9, concentration 9.75 µM",95.46
same,remaining enzyme activity (% of control),"MMP-9; MMP-9, concentration 48.76 µM",62.79
same,remaining enzyme activity (% of control),"MMP-9; MMP-9, concentration 243.80 µM",34.94
same,remaining enzyme activity (% of control),"MMP-9; MMP-9, concentration 1219.00 µM",0.00
same,IC50,MMP-9; [1],134 ± 39.6 µM
same,remaining activity (%),"MMP-2; MMP-2, concentration 0.0156 µM",85.89
same,remaining activity (%),"MMP-2; MMP-2, concentration 0.08 µM",83.14
same,remaining activity (%),"MMP-2; MMP-2, concentration 0.39 µM",79.52
same,remaining activity (%),MMP-2; MMP-2; concentration 9.75 µM,75.23
same,remaining activity (%),MMP-2; MMP-2; concentration 48.76 µM,75.41
same,remaining activity (%),MMP-2; MMP-2; concentration 243.80 µM,40.43
same,remaining activity (%),MMP-2; [2],0.00
same,IC50,MMP-2; [3],193 ± 24.2 µM
